Measurements from patent publication US9734283B2, “Genomic features associated with epigenetic control regions and transgenerational inheritance of epimutations” (priority 2011, dated 2017).

Key:
[1] = tested on: testicular spermatogenic cells; assay: Testicular spermatogenic cell apoptosis (TUNEL assay), F1-F3 lineage after F0 gestational exposure; assay type: in vivo, mouse
Procedure: (§1) The experimental design involved exposing gestating female inbred 129 strain and outbred CD-1 strain mice to daily intraperitoneal (IP) injections of vehicle (DMSO) (control) or vinclozolin at two doses, 100 mg/kg/day (V1) or 200 mg/kg/day (V2), between embryonic day 7-13 of gestation. In addition, a comparison was used with flutamide IP injections at a 20/mg/kg/day dose. The F1 generation males and females from different litters were bred to generate the F2 generation animals and F2 generation males and females from different litters were bred to generate the F3 generation animals, see Methods below. No sibling or cousin breedings occurred to avoid any inbreeding artifacts. Selected F1, F2 and F3 generation animals from postnatal 90 (P90) or 300 (P300) days of age were analyzed for testis, sperm and other pathologies as previously described.^11, 20, 21
Timed pregnant inbred 129 mice were given intraperitoneal injections with vinclozolin (100 mg/kg·day, 99% pure; ChemService, West Chester, Pa.), flutamide (20 mg/kg·day, Sigma, St. Louis, Mo.) or DMSO in sesame oil (vehicle) as controls, while timed pregnant outbred CD-1 mice were given intraperitoneal injections (IP) with vinclozolin doses: 100 mg/kg·day (V1) or 200 mg/kg·day (V2) or DMSO in sesame oil as controls.^21 Mice were given injections from embryonic day (E) E7-E13, with plug date equal to day 0. Controls were injected with vehicle (DMSO) dose and were matched with vinclozolin or flutamide treatment animals within the same mouse strain at the time of injection and were analyzed together throughout all three generations. […] Male mice were collected and analyzed between P60-P90 (P90) for all generations and treatment groups. […]

CD-1 and 129 strain mice = assay: Transgenerational pathology analysis of adult onset disease (testis, prostate, kidney); assay type: in vivo, mouse
Procedure: as §1
Timed pregnant inbred 129 mice were given intraperitoneal injections with vinclozolin (100 mg/kg·day, 99% pure; ChemService, West Chester, Pa.), flutamide (20 mg/kg·day, Sigma, St. Louis, Mo.) or DMSO in sesame oil (vehicle) as controls, while timed pregnant outbred CD-1 mice were given intraperitoneal injections (IP) with vinclozolin doses: 100 mg/kg·day (V1) or 200 mg/kg·day (V2) or DMSO in sesame oil as controls.^21 Mice were given injections from embryonic day (E) E7-E13, with plug date equal to day 0. Controls were injected with vehicle (DMSO) dose and were matched with vinclozolin or flutamide treatment animals within the same mouse strain at the time of injection and were analyzed together throughout all three generations. The number of treated gestating females used were: for mouse 129 strain (3 controls and 4 vinclozolin treated); for mouse 129 strain flutamide 20 mg/kg/day dose (3 controls and 3 flutamide treated); and for mouse CD-1 strain (4 control and 3 vinclozolin treated (100 mg/kg/day (V1), 3 vinclozolin 200 mg/kg/day (V2)). F1 postnatal (P)P90 males and females from different litters of control, vinclozolin and flutamide treatment groups were bred to generate the F2 generation. F2 generation mice were bred to generate the F3 generation. Breedings were carefully monitored to eliminate any sibling or cousin breeding to remove potential phenotypes as a result of inbreeding. Male mice were collected and analyzed between P60-P90 (P90) for all generations and treatment groups. The number of P90 males collected for replicates for the mouse 129 strain vinclozolin treatment group (i.e. n value) were: for F1 (8 control, 11 vinclozolin); for F2 (11 control, 22 vinclozolin); and for F3 (11 control, 11 vinclozolin). […]

CD-1 mice ovaries = assay: Identification of ovarian cysts in vinclozolin lineage females; assay type: in vivo, mouse; conditions: CD-1 females, all F1-F3 generations, V2 200 mg/kg/day; p<0.05
Procedure: Abnormalities in adult females of the F1, F2 and F3 generations were not extensively evaluated. However, at the time of sacrifice and dissection it was noticed that some females had cystic structures on their ovaries. These were grossly visible fluid-filled structures larger than normal Graffian follicles. If an animal had one or more cystic structures on one or both ovaries, then that female was considered to have cystic ovaries. A sub-set of 17 ovaries was also evaluated histologically, and there was concordance of ovaries labeled as cystic at gross dissection with the histologic presence of very large cystic structures. Cysts were defined as structures having a lining of none or a single layer of granulosa cells and an increased thickness of the surrounding stromal/thecal layer compared to what is found in large antral follicles.

caudal epididymal sperm = assay: Epididymal sperm motility and concentration analyses; assay type: in vivo, mouse
Procedure: The sperm motility was determined using caudal epididymal sperm. The epididymis was dissected free of connective tissue and a small cut made to the cauda. The tissue was placed in 2 ml F12 culture medium containing 0.1% BSA for 10 minutes at 37° C. Fifty microliters was placed on a warm slide and gently cover-slipped. The specimen was immediately examined using phase contrast microscopy with 200×magnification. The sperm motility assays examined rapid progressive, slow progressive and non-progressive motility according to WHO category.^51 The ratio of motile sperm to the total number of sperm, including immotile sperm, was calculated. Approximately 50-100 sperm were counted per microscopic field. The procedure was repeated at least twice with a new specimen from the same epididymis. Epididymal sperm count was determined using the same epididymis according to a previously described method with some modifications.^25, 52 Briefly, the epididymis that was placed in the 2 ml of culture medium was minced. The tissue pieces were stored at 4° C. for 48 hours to immobilize the sperm. Three independent sperm samples were counted using a hemocytometer. The counts were averaged and used as a replicate in statistical analysis. The control and vinclozolin generation analysis and the control and flutamide generation analysis for an individual experiment were done at the same time. All analyses were done blinded, such that different individuals were used for collection and counting.

rats = conditions: previous study; mammary tumors, prostate disease, kidney disease, testis and immune abnormalities; cited from earlier work
[2] = F3 generation vinclozolin lineage CD-1 mice, P300, p<0.02 vs controls

C=CC1(C)OC(=O)N(c2cc(Cl)cc(Cl)c2)C1=O (racemic) [vinclozolin, (RS)-3-(3,5-dichlorophenyl)-5-methyl-5-vinyl-1,3-oxazolidine-2,4-dione]
mean number of apoptotic germ cells within the testes ([1]; 129 inbred strain, vinclozolin 100 mg/kg/day IP to F0 E7-E13, F1, F2, F3 at P90, F1 and F2 at P300, vs control): increased | testicular apoptotic germ cells ([1]; CD-1 outbred strain, V1 100 mg/kg/day IP to F0 E7-E13, F1 and F3 P90, F1, F2, F3 P300): significant increases | animals that developed at least one disease (CD-1 and 129 strain mice; [2]): 75% | animals with two or more disease states (CD-1 and 129 strain mice; [2]): 34% | proportion of mice exhibiting abnormal disease-like characteristics in testis, prostate, and kidney tissues (CD-1 and 129 strain mice; aged (P300) F3 generation CD-1 strain, vinclozolin lineage vs control): increases | adult onset disease of the prostate, kidney, testis or ovaries (CD-1 and 129 strain mice; inbred 129 strain mice, between treatment groups): no observable differences | ovarian cysts (CD-1 mice ovaries): significant increase | mean epididymal sperm concentration (caudal epididymal sperm; primarily F1 generation, not observed in 129 strain F2 or F3): reduction | mean percentage of motile epididymal sperm (caudal epididymal sperm; primarily in the F1 generation males): reduction | frequencies of adult onset disease states (rats): 20-50%
